System: primary osteoblasts
Test: Alkaline phosphatase (ALP) activity of osteoblasts
Assay type: cell-based, Wistar rats
Details: day 15 of treatment; 10^-9 M 1,25(OH)2D3, 1 μM OLP, 1 μM HTy; vs negative control (C-); FIGS. 3 to 6
Protocol: Primary osteoblasts were isolated from the calvaria of newborn Wistar rats by enzymatic digestion as described by Declercq et al. in 2004. During all experiments, cells were maintained in α-minimal essential medium with 10% heat-inactivated fetal bovine serum and 1% penicillin/streptomycin under conditions of 5% CO2 and 37° C. Cells were seeded on Coll-1-coated 96-well plates at a density of 3500 cells/well or in 24-well plates at a density of 3×10^4 cells/well and cultured for 2 days in o-MEM to reach confluence. Cells were then exposed to different conditions: minimal medium (C−), minimal medium containing 50 μg/ml ascorbic acid, 5 mM ß-glycerophosphate (C+; optimized medium), and minimal medium supplemented with 1 μM Oleuropein ([…]) or/and 10^−9 M 1,25 dihydroxyvitamin D3 (1,25(OH)2D3). OLP and HTy were dissolved in dimethylsulfoxide (DMSO) and 1,25(OH)2D3 was dissolved in ethanol. The final concentrations of DMSO and ethanol in the medium were 0.1% each. The medium was changed every 2 days.
Enzymatic activity of Alkaline Phosphatase (ALP) was measured kinetically on Treatment Days 0, 5, 9, 12 and 15. Osteoblasts were rinsed twice with PBS before being frozen on dry ice. […] Absorbance was measured at 405 nm and 30° C., and every 2 min 30 s for 30 min using a VarioSklan Flash microplate reader. ALP activity was expressed as micromoles of p-NPP per hour per milligram of protein. […]

For C=C1/C(=C\C=C2/CCC[C@]3(C)[C@@H]([C@H](C)CCCC(C)(C)O)CC[C@@H]23)C[C@@H](O)C[C@@H]1O [Vitamin D3, 1,25 dihydroxyvitamin D3], the “AP (ALP) activity / osteoblast activity” value was “small but statistically significant increase”.

Source: patent US11166965B2, “Compositions for use in stimulating bone growth” (Société des Produits Nestlé S.A., priority 2013, dated 2021)
